In patent US5079341:
Read-outs that look alike come from different tables or passages of the source.

Settings: amide bond, 33-membered ring, BOP/DMAP

## CCC[C@@H]1NC(=O)[C@H](CO)N(C)C(=O)[C@H](C(C)C)N(C)C(=O)[C@H](CC(C)C)N(C)C(=O)[C@H](CC(C)C)N(C)C(=O)[C@@H](C)NC(=O)[C@H](C)NC(=O)[C@H](CC(C)C)N(C)C(=O)[C@H](C(C)C)NC(=O)[C@H](CC(C)C)N(C)C(=O)CN(C)C1=O
From H-MeSer-Nva-Sar-MeLeu-Val-MeLeu-Ala-dAla-MeLeu-MeLeu-MeVal-OH, CH2Cl2/THF 1:1, 3.9 mM
  ring closure, isolated yield: 20%

## CC[C@@H]1NC(=O)[C@@H]2C[C@@H](O)CN2C(=O)[C@H](C(C)C)N(C)C(=O)[C@H](CC(C)C)N(C)C(=O)[C@H](CC(C)C)N(C)C(=O)[C@@H](C)NC(=O)[C@H](C)NC(=O)[C@H](CC(C)C)N(C)C(=O)[C@H](C(C)C)NC(=O)[C@H](CC(C)C)N(C)C(=O)CN(C)C1=O
From H-Hyp-Abu-Sar-MeLeu-Val-MeLeu-Ala-dAla-MeLeu-MeLeu-MeVal-OH, CH2Cl2, 0.35 mM
  ring closure, isolated yield: 30%

## CC[C@@H]1NC(=O)[C@H](CCNC(=O)OCC2c3ccccc3-c3ccccc32)NC(=O)[C@H](C(C)C)N(C)C(=O)[C@H](CC(C)C)N(C)C(=O)[C@H](CC(C)C)N(C)C(=O)[C@@H](C)NC(=O)[C@H](C)NC(=O)[C@H](CC(C)C)N(C)C(=O)[C@H](C(C)C)NC(=O)[C@H](CC(C)C)N(C)C(=O)CN(C)C1=O
From H-Dab(Fmoc)-Abu-Sar-MeLeu-Val-MeLeu-Ala-dAla-MeLeu-MeLeu-MeVal-OH, CH2Cl2, 0.165 mM
  ring closure, isolated yield: 37%

## CCCC[C@@H]1NC(=O)[C@H](CO)N(C)C(=O)[C@H](C(C)C)N(C)C(=O)[C@H](CC(C)C)N(C)C(=O)[C@H](CC(C)C)N(C)C(=O)[C@@H](C)NC(=O)[C@H](C)NC(=O)[C@H](CC(C)C)N(C)C(=O)[C@H](C(C)C)NC(=O)[C@H](CC(C)C)N(C)C(=O)CN(C)C1=O
From H-MeSer-Nle-Sar-MeLeu-Val-MeLeu-Ala-dAla-MeLeu-MeLeu-MeVal-OH, THF/CH2Cl2 1:1, 0.433 mM
  ring closure, isolated yield: 16%

## CCCC[C@@H]1NC(=O)[C@@H]2C[C@@H](O)CN2C(=O)[C@H](C(C)C)N(C)C(=O)[C@H](CC(C)C)N(C)C(=O)[C@H](CC(C)C)N(C)C(=O)[C@@H](C)NC(=O)[C@H](C)NC(=O)[C@H](CC(C)C)N(C)C(=O)[C@H](C(C)C)NC(=O)[C@H](CC(C)C)N(C)C(=O)CN(C)C1=O
From H-Hyp-Nle-Sar-MeLeu-Val-MeLeu-Ala-dAla-MeLeu-MeLeu-MeVal-OH, CH2Cl2, 0.4 mM
  ring closure, isolated yield: 26%

## CC[C@@H]1NC(=O)[C@H](CO)N(C)C(=O)[C@H](C(C)C)N(C)C(=O)[C@H](CC(C)C)N(C)C(=O)[C@H](CC(C)C)N(C)C(=O)[C@@H](C)NC(=O)[C@H](C)NC(=O)[C@H](CC(C)C)N(C)C(=O)[C@H](C(C)C)NC(=O)[C@H](CC(C)C)N(C)C(=O)CN(C)C1=O
From H-MeSer-Abu-Sar-MeLeu-Val-MeLeu-Ala-dAla-MeLeu-MeLeu-MeVal-OH, CH2Cl2, 0.176 mM
  ring closure, isolated yield: 15%

## CCCC[C@@H]1NC(=O)[C@H]([C@@H](C)O)N(C)C(=O)[C@H](C(C)C)N(C)C(=O)[C@H](CC(C)C)N(C)C(=O)[C@H](CC(C)C)N(C)C(=O)[C@@H](C)NC(=O)[C@H](C)NC(=O)[C@H](CC(C)C)N(C)C(=O)[C@H](C(C)C)NC(=O)[C@H](CC(C)C)N(C)C(=O)CN(C)C1=O
From H-MeThr-Nle-Sar-MeLeu-Val-MeLeu-Ala-dAla-MeLeu-MeLeu-MeVal-OH, CH2Cl2, 0.325 mM
  ring closure, isolated yield: 14%
